Source: patent publication US7932022B2, “Dual-labeled molecular constructs for detection of biochemical reactions” (BioArray Solutions, Ltd., priority 2002, dated 2011)
Where two headings read alike, the source gives them in different places. Where no end group is shown, it is not given here. [ ]: non-standard residue; d: D form. The star is where a group is joined. Biotin = O=C1N[C@H]2[C@H](CS[C@H]2CCCCC(=O)*)N1; pY = N[C@@H](Cc1ccc(OP(=O)(O)O)cc1)C(=O)O

What was measured:
[1] = test system: monoclonal antibodies specific for the phosphorylation modification; details: tyramide detection
Source text: […]

[2] = test system: phosphorylated peptide-specific monoclonal mouse IgG antibodies; details: three-antibody detection
Source text: After coupling, the particles were washed by using PBST. Then, all of the peptide-functionalized beads were combined into a test tube for assembly of microparticle array according to known prior art methods, such as LEAPS, and direct disposition assembly method previously described in Provisional Application Ser. No. 60/343,621, filed Dec. […] The assembled microparticle array is blocked by using 1% BSA in PBST. For immunodetection of phosphorylated peptides on the array, the chip is incubated with monoclonal antibodies specific for the phosphorylation modification. The incubation is carried out in a humid chamber for binding of the antibodies to the phosphorylated peptides. The unbound antibodies are washed away by using PBST. For the purpose of signal amplification, the chip is incubated with secondary antibodies specific for the primary monoclonal antibodies bound on the arrays. The signal may be further amplified by incubation of the chips with fluorescent-labeled antibodies specific for the secondary antibodies. After washing with PBST, the array is examined by using a fluorescent microscope according to known prior art methods, such as the READ assays.
The peptide-functionalized microparticles are assembled into a particle array. The chip was incubated with phosphorylated peptide-specific monoclonal mouse IgG antibodies followed by incubation with mouse IgG-specific secondary antibodies, and then Cy5-labeled third antibodies for detection using a fluorescent microscope. Fluorescence was detected by Cy5 signals. […] The error bars in FIG. 22 represent standard deviation of the respective mean intensities.

[3] = test system: phosphorylated peptide-specific monoclonal mouse IgG antibodies; details: three-antibody detection, six bead types

| Substance | FITC signal intensity at 1000 ms integration [1] | Cy5 signal intensity at 1000 ms integration [2] | Cy5 signal intensity at 1000 ms integration [3] |
| --- | --- | --- | --- |
| Biotin-CEGPWLEEEEEA[pY]GWMDFK-Biotin [Peptide-P-2] | 15,000 units | 15,500 units | approximately 14,000 units |
| Biotin-CKVEKIGEGT[pY]GVVYK [Peptide-P-1] | – | – | approximately 14,000 units |
| Biotin-CRRLIEDAE[pY]AARGK [Peptide-P-3] | – | – | approximately 14,000 units |
| Biotin-KVEKIGEGTYGVVYK [Ty-1] | approximately 700 units | approximately 1400 units | approximately 1000 units |
| Biotin-KVEKIGEGT[pY]GVVYK [Ty-P-1] | 11,000 units | 15,000 units | approximately 14,000 units |
